Measured values published in US5639735A, “Antitumor antibiotic compounds: hayumicins and analogs thereof” (Bristol-Myers Squibb Company, priority 1994, dated 1997).
In brackets after ≈: the same amount, converted by molar mass.

How the values were obtained:
[1] = test system: bacteria (especially gram positive bacteria); test: Antibiotic activity (general statement); assay type: cell-based; details: inhibiting the growth of bacteria
tumors = test: Antitumor activity (general statement); details: no test described
Bacillus subtilis = test: Agar dilution MIC; assay type: cell-based; details: A No. 9506A, 37° C., 18 hours
Protocol: (§1) The following methodology was used to determine the minimum inhibitory concentration (hereinafter referred to as the "MIC") of the compounds of this invention. The test organisms were grown in 20 mL of Antibiotic Assay Broth (Difco) by inoculating the broth (in tubes) with a loopful of the organism from a BHI (Difco) agar slant. The inoculated tubes were incubated at 37° C. for 18 to 24 hours. These cultures were assumed to contain 10^9 colony forming units (CFU) per mL. The cultures were diluted 1:100 to give a final inoculum level of 10^7 CFU per mL; dilutions were made with Yeast Beef Broth (Difco). The antibiotics Hayumicin A and Hayumicin B of the present invention were dissolved in suitable diluents at a concentration of 1000 μg/mL. Two-fold dilutions were made in Yeast Beef Broth (Difco), resulting in a range from 1000 μg/mL to 0.5 μg/mL. A 1.5 mL portion of each dilution was placed into individual petri dishes to which 13.5 mL of K-10 agar was added. The composition of K-10 agar is:
(§2) The final drug concentration in agar of Hayumicin A or Hayumicin B ranged from […] to 0.05 μg/mL. Organism growth control plates containing agar only were prepared and inoculated before and after the test plates. The organisms were applied to the surface of each plate so that each contained a final inoculum of 10^5 CFU. The plates were incubated at 37° C. for 18 hours and the MICs determined. The MIC is the lowest concentration of compound inhibiting growth of the organism.

Staphylococcus aureus = test: Agar dilution MIC; assay type: cell-based; details: 18 h
Protocol: as §1, §2

Streptococcus pneumoniae = test: Agar dilution MIC; assay type: cell-based; details: A No. 9585, 37° C., 18 hours
Protocol: as §1, §2

Escherichia coli = test: Agar dilution MIC; assay type: cell-based; details: 18 h
Protocol: as §1, §2

Pseudomanas aeruginosa = test: Agar dilution MIC; assay type: cell-based; details: A No. 21508, 37° C., 18 hours
Protocol: as §1, §2

Klebsiella oxytoca = test: Agar dilution MIC; assay type: cell-based; details: A No. 203454, 37° C., 18 hours
Protocol: as §1, §2

Streptococcus agalactiae = test: Agar dilution MIC; assay type: cell-based; details: A No. 22567, 37° C., 18 hours
Protocol: as §1, §2

Streptococcus pyogenes = test: Agar dilution MIC; assay type: cell-based; details: A No. 9604, 37° C., 18 hours
Protocol: as §1, §2

Micrococcus luteus = test: Agar dilution MIC; assay type: cell-based; details: A No. 9852, 37° C., 18 hours
Protocol: as §1, §2

Klebsiella pneumoniae = test: Agar dilution MIC; assay type: cell-based; details: A No. 9664, 37° C., 18 hours
Protocol: as §1, §2

Proteus mirabilis = test: Agar dilution MIC; assay type: cell-based; details: A No. 9900, 37° C., 18 hours
Protocol: as §1, §2

Structure (SMILES)	antibiotic activity [1]	solubility in chloroform (Solubility)	solubility in dimethylsulfoxide (Solubility)	solubility in methanol (Solubility)	solubility in n-hexane (Solubility)	solubility in pyridine (Solubility)	solubility in water (Solubility)	antitumor activity (tumors)	MIC (Bacillus subtilis) [µg/mL]	MIC (Staphylococcus aureus; A No. 9537, 37° C.) [µg/mL]	MIC (Staphylococcus aureus; A No. 9606, 37° C.) [µg/mL]	MIC (Staphylococcus aureus; A No. 24227, 37° C.) [µg/mL]	MIC (Streptococcus pneumoniae) [µg/mL]	MIC (Escherichia coli; A No. 20697, 37° C.) [µg/mL]	MIC (Escherichia coli; A No. 22292, 37° C.) [µg/mL]	MIC (Escherichia coli; A No. 28290, 37° C.) [µg/mL]	MIC (Pseudomanas aeruginosa) [µg/mL]	MIC (Klebsiella oxytoca) [µg/mL]	MIC (Streptococcus agalactiae) [µg/mL]	solubility in ether (Solubility)	further results
CO[C@@H]1[C@@H](O)[C@@H](O[C@H]2[C@H](Oc3cccc4c(=O)c5c(O)c(=O)c6ccc(C)c7c(=O)oc(c-5c67)c34)O[C@H](C)[C@H](O)[C@@H]2O)O[C@H](C)[C@@H]1OC [Hayumicin A, 10-[[6-deoxy-2-O-(6-deoxy-3,4-di-O-methyl-α-D-galactopyranosyl)-β-D -galactopyranosyl]oxy]-5-hydroxy-1-methyl-4H -benzo[h]naphtho[8,1,2-cde][1]benzopyran-4,6,12-trione]	possess antibiotic activity	slightly soluble	readily soluble	slightly soluble	insoluble	readily soluble	insoluble	antitumor activity	32 (≈ 48 µM)	64 (≈ 96 µM)	128 (≈ 192 µM)	128 (≈ 192 µM)	16 (≈ 24 µM)	> 128	16 (≈ 24 µM)	> 128	> 128	> 128	8 (≈ 12 µM)	–	MIC (Streptococcus pyogenes): 8 µg/mL (≈ 12 µM); MIC (Micrococcus luteus): 1 µg/mL (≈ 1.5 µM); MIC (Klebsiella pneumoniae): > 128 µg/mL; MIC (Proteus mirabilis): > 128 µg/mL
CO[C@@H]1[C@@H](O)[C@@H](O[C@H]2[C@H](Oc3cccc4c(=O)c5c(N)c(=O)c6ccc(C)c7c(=O)oc(c-5c67)c34)O[C@H](C)[C@H](O)[C@@H]2O)O[C@H](C)[C@@H]1OC [Hayumicin B, 5-amino-10-[[6-deoxy-2-O -(6-deoxy-3,4-di-O-methyl-α-D-galactopyranosyl)-β-D -galactopyranosyl]oxy]-1-methyl-4H -benzo[h]naphtho[8,1,2-cde][1]benzopyran-4,6,12-trione]	possess antibiotic activity	slightly soluble	readily soluble	slightly soluble	insoluble	readily soluble	insoluble	antitumor activity	4 (≈ 6.01 µM)	64 (≈ 96.1 µM)	128 (≈ 192 µM)	128 (≈ 192 µM)	8 (≈ 12 µM)	> 128	128 (≈ 192 µM)	> 128	> 128	> 128	8 (≈ 12 µM)	–	MIC (Streptococcus pyogenes): 8 µg/mL (≈ 12 µM); MIC (Micrococcus luteus): 1 µg/mL (≈ 1.5 µM); MIC (Klebsiella pneumoniae): > 128 µg/mL; MIC (Proteus mirabilis): > 128 µg/mL
CO[C@@H]1[C@H](O)[C@@H](O)[C@@H](O[C@H]2[C@H](Oc3cccc4c(=O)c5c(N)c(=O)c6ccc(C)c7c(=O)oc(c-5c67)c34)O[C@H](C)[C@H](O)[C@@H]2O)O[C@@H]1C [Hayumicin C1, 5-amino-10-[[6-deoxy-2-O -(6-deoxy-4-O-methyl-α-D-galactopyranosyl)-β-D -galactopyranosyl]oxy]-1-methyl-4H -benzo[h]naphtho[8,1,2-cde][1]benzopyran-4,6,12-trione]	possess antibiotic activity	slightly soluble	soluble	slightly soluble	practically insoluble	soluble	practically insoluble	antitumor activity	–	–	–	–	–	–	–	–	–	–	–	practically insoluble	–
CO[C@H]1[C@@H](O)[C@@H](C)O[C@H](O[C@H]2[C@H](Oc3cccc4c(=O)c5c(N)c(=O)c6ccc(C)c7c(=O)oc(c-5c67)c34)O[C@H](C)[C@H](O)[C@@H]2O)[C@@H]1O [Hayumicin C2, B-amino-10-[[6-deoxy-2-O -(6-deoxy-3-O-methyl-α-D-galactopyranosyl)-β-D -galactopyranosyl]oxy]-1-methyl-4H -benzo[h]naphtho[8,1,2-cde][1]benzopyran-4,6,12-trione]	possess antibiotic activity	slightly soluble	soluble	slightly soluble	practically insoluble	soluble	practically insoluble	antitumor activity	–	–	–	–	–	–	–	–	–	–	–	practically insoluble	–
Cc1ccc2c(=O)c(N)c3c(=O)c4cccc(O[C@@H]5O[C@H](C)[C@H](O)[C@H](O)[C@H]5O[C@H]5O[C@H](C)[C@H](O)[C@H](O)[C@H]5O)c4c4oc(=O)c1c2c4-3 [Hayumicin D, 5-amino-10-[[6-deoxy-2-O -(6-deoxy-α-D-galactopyranosyl)-β-D -galactopyranosyl]oxy]-1-methyl-4H -benzo[h]naphtho[8,1,2-cde][1]benzopyran-4,6,12-trione]	possess antibiotic activity	slightly soluble	soluble	slightly soluble	practically insoluble	soluble	practically insoluble	antitumor activity	–	–	–	–	–	–	–	–	–	–	–	practically insoluble	–
